{"source": "patent US20230390235A1", "about": "“THERAPEUTIC AGENT FOR COVID-19” (priority 2020, published 2023)", "key": {"[1]": {"system": "SARS-CoV-2 S pseudotype virus B.1.429 mutant strain (ε strain)", "type": "cell-based", "details": "ε mutant strain (B.1.429); 100 μM; ACE2-expressing HEK293T cells; GFP fluorescence; FIG. 1"}, "[2]": {"system": "SARS-CoV-2 S pseudotype virus N501Y mutant strain", "type": "cell-based"}}, "data": [{"smiles": "COCCOCCOC(=O)N[C@@H](CC(C)C)C(=O)N[C@@H](Cc1ccccc1)C(=O)C(=O)NC1CC1", "note": "[SNJ-1945]", "values": [{"measurement": "entry inhibition of pseudotype virus into cells", "setting": "[1]", "value": "inhibits entry"}, {"measurement": "entry inhibition of pseudotype virus into cells", "setting": "[2]", "value": "inhibits entry"}]}]}
